Experiments:
CYP24 = system: CYP24; parameters: species or system mice; settings: mouse, in vivo
[1] = system: hepatic LXR, FXR and PPARα target genes; format: cell-based, human
[2] = Dolphin et al. 1987; cited from earlier work
RXRα [3] = experiment: BMM anti-RXRα Western blot; format: cell-based, Murine; settings: polyI:C and LG268 treatment, 24 hrs; FIG. 8e
UGT1A6 = system: UGT1A6; parameters: species or system mice; settings: mouse, in vivo
[4] = Hendrix et al. 1993; cited from earlier work
[5] = Serum ALT in APAP hepatotoxicity
RXRα [6] = format: cell-based, Murine
[7] = mouse, in vivo
ZNF202 = experiment: BMM Q-PCR: ZNF202 mRNA; format: cell-based, Murine; settings: polyI:C and LPS; data not shown
CYP3A4 = experiment: Huh7 Q-PCR: CYP3A4
[8] = mouse, in vivo; remark: listed apart in the source
RXRα [9] = experiment: Liver RNA Q-PCR, polyI:C/APAP-treated mice: RXRα; format: in vivo; settings: single polyI:C 100 μg i.v. 24 h before APAP 350 mg/kg i.p.; wildtype vs IRF3−/− mice; FIG. 1A
Experimental: FIG. 1: PolyI:C repression of RXRα and cytochrome P450 family members involves IRF3. Wildtype or IRF3−/− mice (n=4) fasted and were treated with 0.1% NaCl or polyI:C (100 μg) intravenous (i.v.) 24 hours prior to treatment with APAP (350 mg/kg) by intraperitoneal (i.p.) injection. 6 hours post-APAP treatment liver samples were isolated. Liver RNA analyzed by Q-PCR for (A) RXRα (B) Cyp1A2 and (C) Cyp3A11.
Age and sex matched 6-9 week old mice were used for all experiments. C57/B16 mice were obtained from Jackson Laboratory. IRF3^−/− mice were obtained from Dr. T. Taniguchi. For APAP hepatotoxicity analysis, mice fasted for […] and then administered Vehicle (0.1% NaCl) or APAP (175-600 mg/kg) by intraperitoneal injection (i.p.). For serum and histological studies, mice were sacrificed at 6-7 hours post injection and serum and liver samples were retrieved. For survival studies, mice were studied for up to 5 days. For polyI:C studies, mice were also treated with 0.1% NaCl or polyI:C (100 μg) intravenous (i.v.) 12-24 hours prior to APAP treatment. […] Serum alanine aminotransferase (ALT) levels were determined using manufacturer's protocol (TECO Diagnostics). […]
For quantitative realtime PCR (Q-PCR), total RNA was isolated and cDNA synthesized according to manufacturer's protocol: Trizol (RNA) and Bio-Rad iScript (cDNA). […]

Huh7 cells = experiment: Rhodamine 123 assay, mitochondrial membrane potential; format: cell-based, human; settings: Huh7 cells co-treated with ASA 20 μg/ml and polyI:C 1 μg/ml transfected, 24 hours; mock-transfected vs RXRα overexpressing
Experimental: FIG. 15: PolyI:C potentiation of ASA-induced mitochondrial damage. pBabe-Huh7 cells (Huh7_MT) and pBabe-RXRα-Huh7 cells (Huh7 RXRα) were stimulated with Control (DMSO) and ASA (20 μg/ml) with or without polyI:C (1 μg/ml, transfected) for 24 hours. Cells were treated with 5 μg/ml of rhodamine 123 (Invitrogen) for 30 min, trypsinized and resuspended in PBS. Flow cytometry was done to determine rhodamine 123 uptake.

RXRα [10] = system: RXRα; parameters: species or system mice; settings: mouse, in vivo
Hes1 = experiment: BMM Q-PCR: Hes1 mRNA; format: cell-based, Murine; settings: FIG. 9b

In the case of “polyinosinic:polycytidylic acid [polyI:C]”, the “effect on induction of CYP24 mRNA by 1,25(OH)2D3” value (CYP24) is listed as “blunted”, the “effect on LXR, FXR and PPARα-mediated induction of target genes” value [1] is listed as “inhibited” and the “ASA metabolism after polyI:C treatment” value [2] is listed as “results in defective ASA metabolism”. For the same substance, the “RXRα protein levels in IRF3^−/− BMMs” value (RXRα [3]) was “significantly higher than in WT or IFNAR^−/− BMMs”, the “IRF3 dependence of UGT1A6 repression” value (UGT1A6) was “dependent on IRF3” and the “effect on ASA or PCN induction of UGT1A6 mRNA” value (UGT1A6) was “diminished”. The “toxicity of polyI:C” value [4] was “can be taken at high dosages without any toxicity”, the “prevention of ethanol-promoted APAP induction of serum ALT” value ([5]; 20% EtOH 5 days, polyI:C Day 3 and Day 5, APAP 175 mg/kg, FIG. 2C) was “effective at preventing ethanol from promoting APAP induction of serum ALT levels” and the “prevention of PCN/APAP induction of serum ALT” value ([5]; polyI:C 100 μg i.v. and PCN 75 mg/kg 24 h before APAP 175 mg/kg, FIG. 2B) was “capable of preventing PCN/APAP induction of serum ALT levels”. For the same substance, the “prevention of APAP-induced serum ALT increase” value ([5]; polyI:C 100 μg i.v. pretreatment, APAP 350 mg/kg, wildtype and IRF3-deficient mice, FIG. 2A) was “effectively prevented such increase in serum ALT only when IRF3 was present”, the “polyI:C-mediated inhibition of RXRα mRNA in knockout BMMs” value (RXRα [6]) was “defective in IRF3^−/− BMMs but not IFNAR^−/− BMMs” and the “RXRα mRNA repression, extended time course” value (RXRα [6]; 1, 4 or 8 hrs, FIG. 8b) was “more potent repressor of RXRα mRNA than LPS”. For the same substance, the “RXRα mRNA in BMMs” value (RXRα [6]; LPS 10 ng/ml or polyI:C 1 μg/ml, 4 hours, FIG. 8a) was “repressed RXRα mRNA”, the RXRα primary transcripts (RXRα [6]; polyI:C 4 or 8 hrs, exon-intron primers, FIG. 9a) was “strongly repressed” and the “RXRα mRNA stability” value (RXRα [6]; polyI:C 2 hours then Actinomycin D, FIG. 9a) was “No significant differences”. The liver damage [7] was “strongly induced liver damage”, the “ZNF202 mRNA levels” value (ZNF202) was “unaffected” and the “rifampicin induction of CYP3A4” value (CYP3A4; Huh7 cells with RXRα overexpression, FIG. 10e) was “no longer repressed CYP3A4”. The “rifampicin induction of CYP3A4” value (CYP3A4; Huh7 cells, rifampicin 25 μM, transfected polyI:C 2 μg/ml) was “capable of repressing rifampicin induction”, the “LCA-mediated serum ALT increase and liver damage” value [8] was “failed to promote LCA-mediated increases of serum ALT levels or enhance liver damage” and the “serum ALT levels, agent alone” value [8] was “did not significantly increase serum ALT levels”. For the same substance, the “RXRα mRNA in liver” value (RXRα [9]) was “potent downregulation of RXRα mRNA in an IRF3 dependent manner”, the “mitochondrial membrane potential (rhodamine 123)” value (Huh7 cells) was “loss of mitochondrial membrane potential in mock-transfected Huh7 cells co-treated with ASA and polyI:C, but not in Huh7 cells overexpressing RXRα” and the “IRF3 dependence of repression of RXRα and hepatic nuclear receptor target genes” value (RXRα [10]) was “IRF3 was critical for the repression of RXRα and hepatic nuclear receptor target genes”. For the same substance, the “RXRα mRNA expression in liver” value (RXRα [10]; iv) was “significant reduction in RXRα mRNA expression”, the “Hes1 mRNA” value (Hes1; LPS 10 ng/ml or polyI:C 1 μg/ml 4 hrs) was “potently induced” and the “Hes1 induction in IRF3^−/− and IFNAR^−/− BMMs” value (Hes1; polyI:C 1 μg/ml 4 hrs) was “involves IRF3, but not Type I IFNs”.
